Experimental data published in patent EP4806898A1, “HETEROARYL DERIVATIVE COMPOUND AND USE THEREOF” (Voronoi Inc., priority 2023, dated 2025).

Experiments:
recombinant USP1 protein = biological target: T1, recombinant USP1 protein (Homo sapiens, UniProt O94782, DEL125-138/DEL229-408/DEL608-737); test: Binding affinity to recombinant USP1 protein by differential scanning fluorimetry; settings: compound 100 µM; 0.03 mg/mL USP1 (Δ1-66, Δ125-138, Δ229-408, Δ608-737); Tm with compound minus Tm with DMSO; read-out: ΔTm (°C)
T1 sequence (O94782 with tags, fused parts or gaps DEL125-138/DEL229-408/DEL608-737): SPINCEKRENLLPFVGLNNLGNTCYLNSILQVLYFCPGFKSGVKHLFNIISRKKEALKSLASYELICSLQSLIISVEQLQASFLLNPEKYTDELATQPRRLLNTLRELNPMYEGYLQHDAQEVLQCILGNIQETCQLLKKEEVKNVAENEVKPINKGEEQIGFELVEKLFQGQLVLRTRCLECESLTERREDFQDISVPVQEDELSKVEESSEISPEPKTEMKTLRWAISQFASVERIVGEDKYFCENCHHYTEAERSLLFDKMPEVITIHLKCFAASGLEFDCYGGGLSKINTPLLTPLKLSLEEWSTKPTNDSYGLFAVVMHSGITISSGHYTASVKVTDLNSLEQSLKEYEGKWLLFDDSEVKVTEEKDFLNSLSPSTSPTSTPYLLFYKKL
In short: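 Thermal shift readout: ΔTm is the compound-well melting temperature less the DMSO-well value, measured by real-time PCR. Compounds tested at 100 µM final against 0.03 mg/mL truncated USP1 (Δ1-66, Δ125-138, Δ229-408, Δ608-737) in pH 8.0 Tris buffer containing 150 mM NaCl, 2% glycerol, 1 mM DTT.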

UWB1.289 cells = test: Cell proliferation inhibitory activity in BRCA1/2-mutant or HRD-positive cells (Cell Titer-Glo); assay type: cell-based; settings: UWB1289; UWB1.289 cells, 144 hours after compound treatment, Cell Titer-Glo, 1.5 nM to 10 µM; read-out: GI50 UWB1.289 BRCA1 mut
In short: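 GI50 from CellTiter-Glo luminescence after 144 h compound exposure at 37 °C. Cells seeded at 1,000 per well in MEBM/RPMI1640 mix 16–24 h beforehand; […] from 10 µM down to 1.5 nM final (3-fold steps).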

SMILES	ΔTm at 100 µM (recombinant USP1 protein)	GI50 (UWB1.289 cells)
COc1ncnc(C2CC2)c1-c1ncc2cc(C(=O)NC(C)(C)CO)n(Cc3ccc(-c4nc(C(F)(F)F)cn4C(C)C)cc3)c2n1 [Example 156, 2-(4-cyclopropyl-6-methoxypyrimidin-5-yl)-N-(1-hydroxy-2-methylpropan-2-yl)-7-(4-(1-isopropyl-4-(trifluoromethyl)-1H-imidazol-2-yl)benzyl)-7H-pyrrolo[2,3-d]pyrimidine-6-carboxamide]	> 5 °C	< 100 nM
COc1ncnc(C2CC2)c1-c1ncc2cc(C(=O)NC3CCC(N(C)C)CC3)n(Cc3ccc(-c4nc(C(F)(F)F)cn4C(C)C)cc3)c2n1 (centres unmarked) [Example 158, 2-(4-cyclopropyl-6-methoxypyrimidin-5-yl)-N-(4-(dimethylamino)cyclohexyl)-7-(4-(1-isopropyl-4-(trifluoromethyl)-1H-imidazol-2-yl)benzyl)-7H-pyrrolo[2,3-d]pyrimidine-6-carboxamide]	> 5 °C	< 100 nM
COc1ncnc(C2CC2)c1-c1ncc2cc(C(=O)N[C@@H]3CCN(C)C[C@@H]3F)n(Cc3ccc(-c4nc(C(F)(F)F)cn4C)cc3)c2n1 [Example 161, 2-(4-cyclopropyl-6-methoxypyrimidin-5-yl)-N-((3S,4R)-3-fluoro-1-methylpiperidin-4-yl)-7-(4-(1-methyl-4-(trifluoromethyl)-1H-imidazol-2-yl)benzyl)-7H-pyrrolo[2,3-d]pyrimidine-6-carboxamide]	> 5 °C	< 100 nM
COc1ncnc(C2CC2)c1-c1ncc2cc(C(=O)N[C@H]3CCN(C)C[C@H]3F)n(Cc3ccc(-c4nc(C(F)(F)F)cn4C)cc3)c2n1 [Example 162, 2-(4-cyclopropyl-6-methoxypyrimidin-5-yl)-N-((3R, 4S) -3-fluoro-1-methylpiperidin-4-yl)-7-(4-(1-methyl-4-(trifluoromethyl)-1H-imidazol-2-yl)benzyl)-7H-pyrrolo[2,3-d]pyrimidine-6-carboxamide]	> 5 °C	< 100 nM
COc1ncnc(C2CC2)c1-c1ncc2cc(C(=O)N[C@@H]3CCN(C)C[C@H]3F)n(Cc3ccc(-c4nc(C(F)(F)F)cn4C)cc3)c2n1 [Example 165, 2-(4-cyclopropyl-6-methoxypyrimidin-5-yl)-N-((3R,4R)-3-fluoro-1-methylpiperidin-4-yl)-7-(4-(1-methyl-4-(trifluoromethyl)-1H-imidazol-2-yl)benzyl)-7H-pyrrolo[2,3-d]pyrimidine-6-carboxamide]	> 5 °C	< 100 nM
COc1ncnc(C2CC2)c1-c1ncc2cc(C(=O)N[C@H]3CCN(C)C[C@@H]3F)n(Cc3ccc(-c4nc(C(F)(F)F)cn4C)cc3)c2n1 [Example 167, 2-(4-cyclopropyl-6-methoxypyrimidin-5-yl)-N-((3S,4S)-3-fluoro-1-methylpiperidin-4-yl)-7-(4-(1-methyl-4-(trifluoromethyl)-1H-imidazol-2-yl)benzyl)-7H-pyrrolo[2,3-d]pyrimidine-6-carboxamide]	> 5 °C	< 100 nM
COc1ncnc(C2CC2)c1-c1ncc2cc(C(=O)N[C@@H]3CCC[C@H]3N(C)C)n(Cc3ccc(-c4nc(C(F)(F)F)cn4C)cc3)c2n1 [Example 168, 2-(4-cyclopropyl-6-methoxypyrimidin-5-yl)-N-((1R,2R)-2-(dimethylamino)cyclopentyl)-7-(4-(1-methyl-4-(trifluoromethyl)-1H-imidazol-2-yl)benzyl)-7H-pyrrolo[2,3-d]pyrimidine-6-carboxamide]	> 5 °C	< 100 nM
COc1ncnc(C2CC2)c1-c1ncc2cc(C(=O)N3CCN(C)CC3)n(Cc3ccc(-c4nc(C(F)(F)F)cn4C)cc3)c2n1 [Example 170, (2-(4-cyclopropyl-6-methoxypyrimid in-5-yl)-7-(4-(1-methyl-4-(trifluoromethyl)-1H-imidazol-2-yl)benzyl) -7H-pyrrolo[2,3-d]pyrimidin-6-yl) (4-methylpiperazi n-1-yl)methanone]	> 5 °C	100 to 500 nM
COc1ncnc(C2CC2)c1-c1ncc2cc(C(=O)NC3CCC(N(C)C)CC3)n(Cc3ccc(-c4nc(C(F)(F)F)cn4C)cc3)c2n1 (centres unmarked) [Example 172]	> 5 °C	< 100 nM
COc1ncnc(C2CC2)c1-c1ncc2cc(C(=O)N[C@H]3CCN(C)C3)n(Cc3ccc(-c4nc(C(F)(F)F)cn4C(C)C)cc3)c2n1 [Example 174, (S)-2-(4-cyclopropyl-6-methoxypyrimidin-5-yl)-7-(4-(1-isopropyl-4-(trifluoromethyl)-1H-imidazol-2-yl)benzyl)-N-(1-methylpyrrolidin-3-yl)-7H-pyrrolo[2,3-d]pyrimidine-6-carboxamide]	> 5 °C	< 100 nM
COc1ncnc(C2CC2)c1-c1ncc2cc(C(=O)N[C@@H]3CCN(C)C3)n(Cc3ccc(-c4nc(C(F)(F)F)cn4C(C)C)cc3)c2n1 [Example 175, (R)-2-(4-cyclopropyl-6-methoxypyrimidin-5-yl)-7-(4-(1-isopropyl-4-(trifluoromethyl)-1H-imidazol-2-yl)benzyl)-N-(1-methylpyrrolidin-3-yl)-7H-pyrrolo[2,3-d]pyrimidine-6-carboxamide]	> 5 °C	< 100 nM

Second part, led by results:

ΔTm at 100 µM (recombinant USP1 protein)	SMILES	GI50 (UWB1.289 cells)
> 5 °C	COc1ncnc(C2CC2)c1-c1ncc2cc(C(=O)NCCO)n(Cc3ccc(-c4nc(C(F)(F)F)cn4C(C)C)cc3)c2n1 [Example 157, 2-(4-cyclopropyl-6-methoxypyrimidin-5-yl)-N-(2-hydroxyethyl)-7-(4-(1-isopropyl-4-(trifluoromethyl)-1H-imidazol-2-yl)benzyl)-7H-pyrrolo[2,3-d]pyrimidine-6-carboxamide]	< 100 nM
> 5 °C	COc1ncnc(C2CC2)c1-c1ncc2cc(C(=O)NC[C@@H](C)O)n(Cc3ccc(-c4nc(C(F)(F)F)cn4C)cc3)c2n1 [Example 163, (R)-2-(4-cyclopropyl-6-methoxypyrimidin-5-yl)-N-(2-hydroxypropyl) -7-(4-(1-methyl-4-(trifluoromethyl)-1H-imidazol-2-yl)benzyl)-7H-pyrrolo[2,3-d]pyrimidine-6-carboxamide]	< 100 nM
> 5 °C	COc1ncnc(C2CC2)c1-c1ncc2cc(C(=O)NC[C@H](C)O)n(Cc3ccc(-c4nc(C(F)(F)F)cn4C)cc3)c2n1 [Example 164, (S)-2-(4-cyclopropyl-6-methoxypyrimidin-5-yl)-N-(2-hydroxypropyl) -7-(4-(1-methyl-4-(trifluoromethyl)-1H-imidazol-2-yl)benzyl)-7H-pyrrolo[2,3-d]pyrimidine-6-carboxamide]	< 100 nM
> 5 °C	COc1ncnc(C2CC2)c1-c1ncc2cc(C(=O)N[C@@H](C)CO)n(Cc3ccc(-c4nc(C(F)(F)F)cn4C)cc3)c2n1 [Example 166, (S)-2-(4-cyclopropyl-6-methoxypyrimidin-5-yl)-N-(1-hydroxypropan-2-yl)-7-(4-(1-methyl-4-(trifluoromethyl)-1H-imidazol-2-yl)benzyl)-7H-pyrrolo[2,3-d]pyrimidine-6-carboxamide]	< 100 nM
> 5 °C	COc1ncnc(C2CC2)c1-c1ncc2cc(C(=O)N[C@@H]3CCN(C)C3)n(Cc3ccc(-c4nc(C(F)(F)F)cn4C)cc3)c2n1 [Example 169, (R) -2-(4-cyclopropyl-6-methoxypyrimidin-5-yl)-7-(4-(1-methyl-4-(trifluoromethyl)-1H-imidazol-2-yl)benzyl)-N-(1-methylpyrrolidin-3-yl)-7H-pyrrolo[2,3-d]pyrimidine-6-carboxamide]	< 100 nM
> 5 °C	COc1ncnc(C2CC2)c1-c1ncc2cc(C(=O)NC3CN(C)C3)n(Cc3ccc(-c4nc(C(F)(F)F)cn4C)cc3)c2n1 [Example 171, 2-(4-cyclopropyl-6-methoxypyrimidin-5-yl)-7-(4-(1-methyl-4-(trifluoromethyl)-1H-imidazol-2-yl)benzyl)-N-(1-methylazetidin-3-yl)-7H-pyrrolo[2,3-d]pyrimidine-6-carboxamide]	< 100 nM
> 5 °C	COc1ncnc(C2CC2)c1-c1ncc2cc(C(=O)N[C@H]3CCN(C)C3)n(Cc3ccc(-c4nc(C(F)(F)F)cn4C)cc3)c2n1 [Example 173, (S)-2-(4-cyclopropyl-6-methoxypyrimidin-5-yl)-7-(4-(1-methyl-4-(trifluoromethyl)-1H-imidazol-2-yl)benzyl)-N-(1-methylpyrrolidin-3-yl)-7H-pyrrolo[2,3-d]pyrimidine-6-carboxamide]	< 100 nM
> 5 °C	COc1ncnc(C2CC2)c1-c1ncc2cc(C(=O)NC[C@@H](O)CO)n(Cc3ccc(-c4nc(C(F)(F)F)cn4C)cc3)c2n1 [Example 176, (R) -2-(4-cyclopropyl-6-methoxypyrimidin-5-yl)-N-(2,3-dihydroxypropy 1)-7-(4-(1-methyl-4-(trifluoromethyl)-1H-imidazol-2-yl)benzyl)-7H-pyrrolo[2,3-d]pyrimidine-6-carboxamide]	100 to 500 nM
